The source of these data is patent US20240279205A1, “NOVEL BENZIMIDAZOLE DERIVATIVE” (Carna Biosciences, Inc., priority 2020, published 2024).

Counter-ions that a name gives are not always drawn.

The first test deals with T1, human STING (hSTING) (Homo sapiens, UniProt Q86WV6).
T1 construct: host or cells: HEK-Blue ISG cells (HEK293-derived SEAP reporter line)
T1 sequence (Q86WV6 whole entry H232R): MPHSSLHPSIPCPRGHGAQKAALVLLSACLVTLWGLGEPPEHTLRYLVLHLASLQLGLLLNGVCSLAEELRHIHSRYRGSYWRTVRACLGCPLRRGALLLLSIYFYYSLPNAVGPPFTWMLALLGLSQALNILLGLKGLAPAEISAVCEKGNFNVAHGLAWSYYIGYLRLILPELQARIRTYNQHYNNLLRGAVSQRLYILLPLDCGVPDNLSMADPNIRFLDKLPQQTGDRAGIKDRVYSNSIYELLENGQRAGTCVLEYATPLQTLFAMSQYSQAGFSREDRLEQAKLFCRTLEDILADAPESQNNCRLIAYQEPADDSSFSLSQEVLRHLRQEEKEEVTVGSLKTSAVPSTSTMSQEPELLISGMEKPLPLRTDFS
Briefly: Inhibition test of intracellular human STING (hSTING) pathway using SEAP reporter cells (HEK-Blue ISG), stimulation with Compound 3. It counts as cell-based. On the set-up: hSTING inhibitory activity: scale not given here. To be noted: Compound 3 10 nM stimulation, 21 hours. How it is done:
Inhibition test of intracellular human STING (hSTING) pathway using reporter cells
Since STING activates the transcription factor IRF3 upon ligand stimulation, the activity of STING can be evaluated by a reporter assay using a secretory alkaline phosphatase (SEAP reporter) integrated downstream of an IRF-inducible promoter.
That is, the hSTING inhibitory activity of the test compound was evaluated using HEK-Blue™MISG cells (manufactured by Invivogen, #hkb-isg-1) incorporating a SEAP reporter. Activation of hSTING was performed by stimulation with the small molecule ligand Compound 3 as described in the literature (Ramanjulu, J. M., et al., Nature. 2018, 564 (7736), 439-443). HEK-Blue™MISG cells were seeded in a 96-well plate and cultured overnight at 37° C. in a 5% CO2 incubator. To each well of this cell culture plate, a test compound solution adjusted to a final concentration of 0.1 to 10 µM of the test compound was added, cultured for 1 hour in a CO2 incubator, and then Compound 3 (final concentration 10 nM) was added and further cultured in a CO2 incubator for 21 hours. After collecting the culture supernatant of each well, the reporter activity was measured by color development reaction with alkaline phosphatase.
The reporter activity of the test compound non-addition and Compound 3 addition group was set to 100%, and the reporter activity of the test compound non-addition and Compound 3 non-addition group was set to 0%. The IC50 value was determined by regression analysis of the inhibitory rate determined from the reporter activity at each compound concentration and the test compound concentration (logarithm).
For the molecule `Cn1c(Nc2c[nH]c3ccc(Br)cc23)nc2ccc(Oc3ccccc3)cc21` [Embodiment 39, N-(5-bromo-1H-indol-3-yl)-1-methyl-6-phenoxy-1H-benzo[d]imidazol-2-amine], the hSTING inhibitory activity entry is “* *”. Same read-out and setting: to `Brc1ccc2[nH]cc(Nc3nc4ccccc4[nH]3)c2c1` [Example 1, N-(5-bromo-1H-indol-3-yl)-1H-benzo[d]imidazol-2-amine] belongs “* *”.

On to `Cn1c(Nc2c[nH]c3ccc(Br)nc23)nc2cc(C(F)(F)F)ccc21` [Embodiment 43, N-(5-bromo-1H-pyrrolo[3,2-b]pyridin-3-yl)-1-methyl-5-(trifluoromethyl)-1H-benzo[d]imidazol-2-amine], for which the hSTING inhibitory activity result is given as “* * *”.

As to `Brc1ccc2[nH]cc(Nc3nc4c(-c5ccccc5)cccc4[nH]3)c2n1` [Embodiment 62, N-(5-bromo-1H-pyrrolo[3,2-b]pyridin-3-yl)-4-phenyl-1H-benzo [d]imidazol-2-amine], the hSTING inhibitory activity result is listed as “* *”. On the same count and under the same terms, under `CN(C)c1cccc(Oc2ccc3[nH]c(Nc4c[nH]c5ccc(Br)nc45)nc3c2)c1` [Embodiment 65, N-(5-bromo-1H-pyrrolo[3,2-b]pyridin-3-yl)-5-[3-(dimethylamino)phenoxy]-1H-benzo[d]imidazol-2-amine] stands “* *”. Consider `FC(F)(F)c1ccc2[nH]cc(Nc3nc4cc(Oc5ccccc5)ccc4[nH]3)c2n1` [Embodiment 55, 5-phenoxy-N-[5-(trifluoromethyl)-1H-pyrrolo[3,2-b]pyridin-3-yl]-1H-benzo[d]imidazol-2-amine], for which the hSTING inhibitory activity result is on record as “* *”.

Still in this test, the particulars now being: Compound 3 10 nM stimulation, 21 hours, read-out: hSTING inhibitory activity.
For the molecule `CN(C)Cc1ccccc1Oc1ccc2[nH]c(Nc3c[nH]c4ccc(Cl)nc34)nc2c1` [Embodiment 83, N-(5-chloro-1H-pyrrolo[3,2-b]pyridin-3-yl)-5-{2-[(dimethylamino)methyl]phenoxy}-1H-benzo [d]imidazole-2-amine formate], the IC50 is at least 10 µM. Still for that read-out and setting: to `Cn1c(Nc2c[nH]c3ccc(Cl)nc23)nc2cc(F)ccc21` [Embodiment 168, N-(5-Chloro-1H-pyrrolo[3,2-b]pyridin-3-yl)-5-fluoro-1-methyl-1H-benzo[d]imidazol-2-amine formate] belongs at least 10 µM; to `Cc1c(F)ccc2[nH]c(Nc3c[nH]c4ccc(Cl)nc34)nc12` [Embodiment 176, N-(5-Chloro-1H-pyrrolo[3,2-b]pyridin-3-yl)-5-fluoro-4-methyl-1H-benzo[d]imidazol-2-amine formate], 1 to 10 µM. Same read-out and setting: under `Fc1ccc2[nH]cc(Nc3nc4ccccc4[nH]3)c2c1` [Example 14, N-(5-fluoro-1H-indol-3-yl)-1H-benzo[d]imidazol-2-amine] stands at least 10 µM; under `Cn1c(Nc2c[nH]c3ccc(Cl)nc23)nc2cc(Oc3cccnc3)ccc21` [Embodiment 198, N-(5-chloro-1H-pyrrolo[3,2-b]pyridin-3-yl)-1-methyl-5-(pyridin-3-yloxy)-1H-benzo[d]imidazole-2-amine], at least 10 µM. Still for that read-out and setting: under `Cn1c(Nc2c[nH]c3ccc(Cl)nc23)nc2c(F)cc(F)cc21` [Embodiment 203, N-(5-Chloro-1H-pyrrolo[3,2-b]pyridin-3-yl)-4,6-difluoro-1-methyl-1H-benzo[d]imidazol-2-amine] stands at least 10 µM; under `Cn1c(Nc2c[nH]c3ccc(Cl)nc23)nc2cc(F)c(F)cc21` [Embodiment 138, N-(5-Chloro-1H-pyrrolo[3,2-b]pyridin-3-yl)-5,6-difluoro-1-methyl-1H-benzo[d]imidazol-2-amine], at least 10 µM. Consider `CC(C)n1c(Nc2c[nH]c3ccc(Cl)nc23)nc2cc(Cl)c(Cl)cc21` [Embodiment 132, 5,6-dichloro-N-(5-chloro-1H-pyrrolo[3,2-b]pyridin-3-yl)-1-isopropyl-1H-benzo[d]imidazol-2-amine], for which the IC50 is 1 to 10 µM. For the molecule `COCCn1c(Nc2c[nH]c3ccc(Cl)nc23)nc2ccc(F)c(F)c21` [Embodiment 201, N-(5-chloro-1H-pyrrolo[3,2-b]pyridin-3-yl)-6,7-difluoro-1-(2-methoxyethyl)-1H-benzo[d]imidazole-2-amine], the IC50 was at least 10 µM. Same read-out and setting: under `CN(C)C(=O)c1cccc2c(Nc3nc4cc(Oc5ccccc5)ccc4[nH]3)c[nH]c12` [Embodiment 122, N,N-dimethyl-3-[(5-phenoxy-1H-benzo[d]imidazol-2-yl)amino]-1H-indole-7-carboxamide formate] stands 1 to 10 µM. Regarding `Cn1cc(-c2ccc3[nH]c(Nc4c[nH]c5ccc(Cl)nc45)nc3c2)cn1` [Embodiment 102, N-(5-chloro-1H-pyrrolo[3,2-b]pyridin-3-yl)-5-(1-methyl-1H-pyrazol-4-yl)-1H-benzo[d]imidazole-2-amine], the IC50 was at least 10 µM. The same measure, in the same setting: under `CC(C)Oc1ccc2nc(Nc3c[nH]c4ccc(Cl)nc34)n(C)c2c1` [Embodiment 209, N-(5-Chloro-1H-pyrrolo[3,2-b]pyridin-3-yl)-6-isopropoxy-1-methyl-1H-benzo[d]imidazol-2-amine] stands 1 to 10 µM; under `COCCn1c(Nc2c[nH]c3ccc(Cl)nc23)nc2ccc(Oc3cccnc3)cc21` [Embodiment 207, N-(5-Chloro-1H-pyrrolo[3,2-b]pyridin-3-yl)-1-(2-methylxhetyl)-6-(pyridin-3-yloxy)-1H-benzo[d] imidazol-2-amine], at least 10 µM. Same read-out and setting: under `Cn1c(Nc2c[nH]c3ccc(Cl)nc23)nc2cc(F)cc(F)c21` [Embodiment 204, N-(5-Chloro-1H-pyrrolo[3,2-b]pyridin-3-yl)-5,7-difluoro-1-methyl-1H-benzo[d]imidazol-2-amine] stands at least 10 µM; under `Cn1c(Nc2c[nH]c3ccc(Cl)nc23)nc2c(F)cccc21` [Embodiment 155, N-(5-Chloro-1H-pyrrolo[3,2-b]pyridin-3-yl)-4-fluoro-1-methyl-1H-benzo[d]imidazol-2-amine], at least 10 µM; under `Clc1ccc2[nH]cc(Nc3nc4cc(-c5cccnc5)ccc4[nH]3)c2n1` [Embodiment 97, N-(5-Chloro-1H-pyrrolo[3,2-b]pyridin-3-yl)-5-(pyridin-3-yl)-1H-benzo[d]imidazol-2-amine], 1 to 10 µM.

Regarding `Cn1c(Nc2c[nH]c3ccc(Cl)nc23)nc2ccc(C(F)(F)F)cc21` [Embodiment 46, N-(5-Chloro-1H-pyrrolo[3,2-b]pyridin-3-yl)-1-methyl-6-(trifluoromethyl)-1H-benzo[d] imidazol-2-amine], the IC50 is at least 10 µM. Still for that read-out and setting: under `Cn1cnc(-n2c(Nc3c[nH]c4ccc(Cl)cc34)nc3cc(C(F)(F)F)ccc32)c1` [Embodiment 227, N-(5-Chloro-1H-indol-3-yl)-1-(1-methyl-1H-imidazol-4-yl)-5-(trifluoromethyl)-1H-benzo[d] imidazole-2-amine] stands at least 10 µM; under `CN(C)C(=O)c1cccc2[nH]c(Nc3c[nH]c4ccc(Cl)nc34)nc12` [Embodiment 166, 2-[(5-Chloro-1H-pyrrolo[3,2-b]pyridin-3-yl)amino]-N,N-dimethyl-1H-benzo[d]imidazole-4-carboxamide], at least 10 µM. The same measure, in the same setting: under `CC(C)(O)Cn1c(Nc2c[nH]c3ccc(Cl)cc23)nc2cc(C(F)(F)F)ccc21` [Embodiment 234, 1-{2-[(5-chloro-1H-indol-3-yl)amino]-5-(trifluoromethyl)-1H-benzo [d]imidazol-1-yl}-2-methylpropane-2-oar] stands 1 to 10 µM.
